Experimental data: publication PMC3345832, “EROD and MROD as Markers of Cytochrome P450 1A Activities in Hepatic Microsomes from Entire and Castrated Male Pigs” (Sensors (Basel, Switzerland), 2009)
Where two headings read alike, the source gives them in different places. Each block holds one compound with its values, some of them ahead of it.

Columns and labels:
[1] = test system: porcine liver microsomes (EROD); experiment: Enzyme kinetics of resorufin formation from 7-ethoxyresorufin (EROD) in hepatic microsomes; assay type: in vitro ADME, pig; conditions: 95% confidence interval
Experimental: (§1) Incubation mixtures contained microsomal protein (0.2 mg), phosphate buffer (pH 7.4, 50 mM) and substrate (2 μM; 7-ethoxyresofurin for EROD activity or 7-methoxyresofurin for MROD activity). Reactions were started by the addition of 1 mM NADPH. The reaction mixture, in a final volume of 500 μL, was incubated in a water bath at 37 °C for 5 min. Reactions were terminated with ice-cold 100% methanol (500 μL), followed by centrifugation at 7,500 × g for 5 min. Resorufin concentrations in the supernatants were measured with HPLC the same day as described above. EROD and MROD activities were expressed as pmol of resorufin per milligram protein and minute.
(§2) The studies were performed by using two pools of microsomes from six entire (pool 1) and six castrated male pigs (pool 2). For the kinetic studies, EROD and MROD activities were determined over the substrate concentration range from 0.0156 to 3.0 μM. […] The final concentration of DMSO in the incubations was below 0.5%.
(§3) Michaelis-Menten parameters (Km and Vmax values) and inhibition constants (Ki) were determined by a GraphPad Prism version 4.0 for Windows, GraphPad Software (San Diego California, USA). Data were additionally assayed by a SigmaPlot Enzyme Kinetics 1.3 software. Visual analysis of Eadie-Hofstee plots was used to categorise enzyme kinetics as mono- or biphasic, i.e. whether one or more enzymes participate in the reaction. When Eadie-Hofstee plots indicated monophasic kinetics, the following equation was applied to estimate kinetic parameters: V=(Vmax*S)/(Km+S); when Eadie-Hofstee plots indicated biphasic kinetics, the following equation was applied: V=(Vmax1*S)/(Km1+S)+ (V max2*S)/(Km2+S).

[2] = test system: EROD activity (7-ethoxyresorufin O-deethylation); experiment: as above; assay type: in vitro ADME, pig; conditions: male, pig, 95% confidence interval
Experimental: as §1, §2, §3

[3] = test system: porcine liver microsomes (EROD); design: method as in Messina et al. [6]; conditions: ref Messina et al. [6]; cited from earlier work
[4] = test system: porcine liver microsomes (MROD); conditions: cited from earlier work
[5] = test system: porcine liver microsomes (MROD); conditions: 95% confidence interval
CYP1A (EROD activity) = experiment: in vitro; conditions: male, pig, substrate 0.25 to 2 µM
Experimental: as §1
(§4) The studies were performed by using two pools of microsomes from six entire (pool 1) and six castrated male pigs (pool 2). […] For the inhibition study, the substrate range was from 0.25 to 2 µM. […] The inhibitors were dissolved in DMSO, and the same volume of DMSO was added to the control incubations. The final concentration of DMSO in the incubations was below 0.5%. All inhibitors were added before the addition of the substrate. […] Inhibition is expressed as the percent of the corresponding incubation control.
(§5) Michaelis-Menten parameters (Km and Vmax values) and inhibition constants (Ki) were determined by a GraphPad Prism version 4.0 for Windows, GraphPad Software (San Diego California, USA). Data were additionally assayed by a SigmaPlot Enzyme Kinetics 1.3 software. […] When Eadie-Hofstee plots indicated monophasic kinetics, the following equation was applied to estimate kinetic parameters: V=(Vmax*S)/(Km+S); when Eadie-Hofstee plots indicated biphasic kinetics, the following equation was applied: V=(Vmax1*S)/(Km1+S)+ (V max2*S)/(Km2+S).

CYP1A (MROD activity) = experiment: in vitro; conditions: male, pig, pH 7.4, Ki
Experimental: as §1, §4, §5

[6] = test system: EROD activities in porcine liver microsomes (CYP1A); conditions: for EROD activity, % of the control values: 20 μM inhibitor, microsomes from entire and castrated male pigs; for Ki, EROD: substrate 0.25 to 2 µM
Experimental: as §1, §4, §5

[7] = test system: MROD activities in porcine liver microsomes (CYP1A)
Experimental: as §1, §4, §5

[8] = Stability of resorufin in incubation supernatants; assay type: physicochemical
Experimental: The stability was assessed by measuring resorufin in the supernatant (n=8) stored in +4 °C and protected from light for several days and measured at days 0, 1, 2, 3, 5 and 8. A pool of microsomes used for the stability study was previously used for study on linearity with microsomal protein. Resorufin concentrations in those samples varied from 0.9 to 8.1 pmol/mL. Stability of resorufin stored in room temperature was assessed using four samples with resorufin concentrations from 1.5 to 2.6 pmol/mL.

[9] = 20 μM inhibitor, microsomes from entire and castrated male pigs
[10] = microsomes from castrated pigs, substrate 0.25 to 2 µM
[11] = microsomes from entire male pigs, substrate 0.25 to 2 µM

Vmax (CI), EROD high-affinity component ([1]; castrated male pigs): 7.3 (5.5 – 9.0) pmol/min/mg | Vmax (CI), EROD low-affinity component ([1]; castrated male pigs): 15.2 (12.9 – 17.6) pmol/min/mg | Vmax (CI), EROD high-affinity component ([1]; entire male pigs): 5.9 (3.1 – 8.6) pmol/min/mg | Vmax (CI), EROD low-affinity component ([1]; entire male pigs): 11.7 (9.6 – 13.8) pmol/min/mg | Km at 5 min ([2]; liver microsomes (pool 1, six entire male pigs), pH 7.4, entire male pigs, read-out: Km (CI), EROD high-affinity component): 0.01 µM | Km at 5 min ([2]; liver microsomes (pool 1, six entire male pigs), pH 7.4, entire male pigs, read-out: Km (CI), EROD low-affinity component): 0.54 µM | Km at 5 min ([2]; liver microsomes (pool 2, six castrated male pigs), pH 7.4, castrated male pigs, read-out: Km (CI), EROD high-affinity component): 0.01 µM | Km at 5 min ([2]; liver microsomes (pool 2, six castrated male pigs), pH 7.4, castrated male pigs, read-out: Km (CI), EROD low-affinity component): 1.25 µM
Compound: CCOc1ccc2nc3ccc(=O)cc-3oc2c1 [7-ethoxyresorufin]
Km [3]: 0.64 µM

Vmax (CI), MROD ([5]; castrated male pigs): 2.6 (2.5 – 2.8) pmol/min/mg | Vmax (CI), MROD ([5]; entire male pigs): 0.8 (0.7 – 0.9) pmol/min/mg
Compound: COc1ccc2nc3ccc(=O)cc-3oc2c1 [7-methoxyresorufin]
Km [4]: 2.2 µM

Ki at 5 min (CYP1A (EROD activity); liver microsomes (pool 1, six entire male pigs), pH 7.4, probe 7-ethoxyresorufin, 0.25 to 2 µM, Ki, microsomes from entire male pigs): 0.031 µM | Ki at 5 min (CYP1A (EROD activity); liver microsomes (pool 2, six castrated male pigs), pH 7.4, probe 7-ethoxyresorufin, 0.25 to 2 µM, Ki, microsomes from castrated pigs): 0.096 µM | Ki at 5 min (CYP1A (MROD activity)): 0.014 µM | EROD activity, % of the control values [6]: 19–23% | MROD activity, % of the control values [7, 9]: 30% | Ki ([7]; male, pig, 5 min, pH 7.4): 0.018 µM
Compound: O=c1cc(-c2ccccc2)oc2c1ccc1ccccc12 [ANF, α-naphthoflavone]

Compound: Cc1c2ccncc2c(C)c2c1[nH]c1ccccc12 [Ellipticine, ellipticine]
Ki at 5 min (CYP1A (EROD activity); pH 7.4, Ki, microsomes from castrated pigs): 0.021 µM | Ki at 5 min (CYP1A (EROD activity); pH 7.4, Ki, microsomes from entire male pigs): 0.017 µM | Ki at 5 min (CYP1A (MROD activity); [10]): 0.019 µM | Ki at 5 min (CYP1A (MROD activity); [11]): 0.024 µM | EROD activity, % of the control values [6]: 8–10% | MROD activity, % of the control values [7, 9]: 14–16%

Compound: Cc1nc2c([nH]1)c(=O)n(C)c(=O)n2Cc1ccco1 [Furafylline, furafylline]
Ki at 5 min (CYP1A (MROD activity); [10]): […] | Ki at 5 min (CYP1A (MROD activity); [11]): […] | Effect on EROD activities ([6]; 10-100 μM, pre-incubated with microsomes and NADPH): did not affect EROD activities | Ki, EROD ([6]; microsomes from castrated pigs): no ^* | Ki, EROD ([6]; microsomes from entire male pigs): no ^* | MROD activity, % of the control values ([7]; 100 μM inhibitor, pre-incubated 10 min with NADPH, entire and castrated male pigs): 55–61% | Inhibition of MROD activity without pre-incubation ([7]; no pre-incubation of microsomes and inhibitor with NADPH (data not shown)): No inhibition

Time stable in supernatants ([8]; stored at 4 °C under dark conditions): at least 5 days | Time stable in supernatants ([8]; stored at room temperature): at least 1 day
Compound: O=c1ccc2nc3ccc(O)cc3oc-2c1 [Resorufin]
